Assay results taken from PubChem BioAssay AID1259407 (Chemical Carcinogenesis Research Information System (CCRIS), 2018).
The source made the active and inactive calls. How the calls were made is not given here.

Test system: CCRIS mutagenicity, Ames/micronucleus/aberration tests
Assay: CCRIS mutagenicity studies
[1] = Test System: AMES SALMONELLA TYPHIMURIUM, Strain/Indicator: TA98, Metabolic Activation: NONE, Method: PREINCUBATION
[2] = Test System: AMES SALMONELLA TYPHIMURIUM, Strain/Indicator: TA100, Metabolic Activation: NONE, Method: PREINCUBATION

`Cc1cc(O)c2c(c1)C(=O)c1cc(O)cc(O)c1C2=O` was tested, and the mutagenic call (Test System: AMES SALMONELLA TYPHIMURIUM, Strain/Indicator: TA97, Metabolic Activation: NONE, Method: STANDARD PLATE) was “inactive; negative”, the mutagenic call (Test System: AMES SALMONELLA TYPHIMURIUM, Strain/Indicator: TA97, Metabolic Activation: RAT, LIVER, S-9, AROCLOR 1254, Method: STANDARD PLATE) was “active; positive” and the mutagenic call (Test System: AMES SALMONELLA TYPHIMURIUM, Strain/Indicator: TA97A, Metabolic Activation: NONE, Method: STANDARD PLATE) was “inactive; negative”. The mutagenic call (Test System: AMES SALMONELLA TYPHIMURIUM, Strain/Indicator: TA97A, Metabolic Activation: RAT, LIVER, S-9, AROCLOR 1254, Method: STANDARD PLATE) was “active; positive”, the mutagenic call (Test System: AMES SALMONELLA TYPHIMURIUM, Strain/Indicator: TA98, Metabolic Activation: HAMSTER, LIVER, S-9, AROCLOR 1254 (30%), Method: PREINCUBATION) was “inactive; negative” and the mutagenic call [1] was “inactive; negative”. The mutagenic call (Test System: AMES SALMONELLA TYPHIMURIUM, Strain/Indicator: TA98, Metabolic Activation: RAT LIVER S-9, AROCLOR 1254 (30%), Method: PREINCUBATION) was “inactive; negative”, the mutagenic call (Test System: AMES SALMONELLA TYPHIMURIUM, Strain/Indicator: TA100, Metabolic Activation: HAMSTER LIVER S-9, AROCLOR 1254 (10% OR 30%), Method: PREINCUBATION) was “active; positive” and the mutagenic call [2] was “inactive; negative”. The mutagenic call (Test System: AMES SALMONELLA TYPHIMURIUM, Strain/Indicator: TA100, Metabolic Activation: RAT LIVER S-9, AROCLOR 1254 (5% OR 30%), Method: PREINCUBATION) was “active; positive”, the mutagenic call (Test System: AMES SALMONELLA TYPHIMURIUM, Strain/Indicator: TA102, Metabolic Activation: NONE, Method: STANDARD PLATE) was “inactive; negative” and the mutagenic call (Test System: AMES SALMONELLA TYPHIMURIUM, Strain/Indicator: TA102, Metabolic Activation: S-9, Method: STANDARD PLATE) was “active; positive”. For the same compound, the mutagenic call (Test System: AMES SALMONELLA TYPHIMURIUM, Strain/Indicator: TA1535, Metabolic Activation: NONE, Method: STANDARD PLATE) was “inactive; negative”, the mutagenic call (Test System: AMES SALMONELLA TYPHIMURIUM, Strain/Indicator: TA1535, Metabolic Activation: RAT, LIVER, S-9, AROCLOR 1254, Method: STANDARD PLATE) was “inactive; negative” and the mutagenic call (Test System: AMES SALMONELLA TYPHIMURIUM, Strain/Indicator: TA1537, Metabolic Activation: RAT, LIVER, S-9, AROCLOR 1254, Method: STANDARD PLATE) was “active; positive”. For the same compound, the mutagenic call (Test System: AMES SALMONELLA TYPHIMURIUM, Strain/Indicator: TA1537, Metabolic Activation: RAT, LIVER, S-9, PCB, Method: STANDARD PLATE) was “active; positive”, the mutagenic call (Test System: AMES SALMONELLA TYPHIMURIUM, Strain/Indicator: TA1537, Metabolic Activation: RAT, LIVER, S-9, Method: PREINCUBATION) was “active; positive” and the mutagenic call (Test System: AMES SALMONELLA TYPHIMURIUM, Strain/Indicator: TA1538, Metabolic Activation: NONE, Method: STANDARD PLATE) was “inactive; negative”. For the same compound, the mutagenic call (Test System: AMES SALMONELLA TYPHIMURIUM, Strain/Indicator: TA1538, Metabolic Activation: RAT, LIVER, S-9, AROCLOR 1254, Method: STANDARD PLATE) was “inactive; negative”, the mutagenic call (Test System: AMES SALMONELLA TYPHIMURIUM, Strain/Indicator: TA2638, Metabolic Activation: S-9, Method: STANDARD PLATE) was “active; positive” and the mutagenic call (Test System: CHINESE HAMSTER V-79, Strain/Indicator: V-79 (HGPRT)/6-THIOGUANINE, Metabolic Activation: NONE, Method: SUSPENSION/PLATE) was “inactive; negative”. The mutagenic call (Test System: CHINESE HAMSTER V-79, Strain/Indicator: V-79 (HGPRT)/6-THIOGUANINE, Metabolic Activation: RAT, LIVER, S-9, AROCLOR 1254, Method: SUSPENSION/PLATE) was “inactive; negative”, the mutagenic call (Test System: CHINESE HAMSTER V-79, Strain/Indicator: V-79/8-AZAGUANINE, Metabolic Activation: NONE, Method: STANDARD PLATE) was “active; positive” and the mutagenic call (Test System: E. COLI, Strain/Indicator: WP2 (PKM101), Metabolic Activation: S-9, Method: STANDARD PLATE) was “inactive; negative”. For the same compound, the mutagenic call (Test System: E. COLI, Strain/Indicator: WP2 UVRA (PKM101), Metabolic Activation: S-9, Method: STANDARD PLATE) was “inactive; negative” and the mutagenic call (Test System: UDS RODENT HEPATOCYTES, Strain/Indicator: THY INCORP (NON-S-PHASE), Metabolic Activation: NONE, Method: AUTORADIOGRAPHY) was “active; positive”.

With `C/C=C/Cl` the mutagenic call (Test System: AMES SALMONELLA TYPHIMURIUM, Strain/Indicator: TA100, Metabolic Activation: NONE, Method: DESICCATOR) was “active; positive” and the mutagenic call (Test System: AMES SALMONELLA TYPHIMURIUM, Strain/Indicator: TA100, Metabolic Activation: RAT, LIVER, S-9, PCB OR PHENOBARBITAL, Method: DESICCATOR) was “active; positive”.

For `NC(=O)c1ccccc1O`, the mutagenic call (Test System: AMES SALMONELLA TYPHIMURIUM, Strain/Indicator: TA97, Metabolic Activation: HAMSTER, LIVER, S-9, AROCLOR 1254 (10 OR 30%), Method: PREINCUBATION) was “inactive; negative”, the mutagenic call (Test System: AMES SALMONELLA TYPHIMURIUM, Strain/Indicator: TA97, Metabolic Activation: NONE, Method: PREINCUBATION) was “inactive; negative” and the mutagenic call (Test System: AMES SALMONELLA TYPHIMURIUM, Strain/Indicator: TA97, Metabolic Activation: RAT, LIVER, S-9, AROCLOR 1254 (10 OR 30%), Method: PREINCUBATION) was “inactive; negative”. The mutagenic call (Test System: AMES SALMONELLA TYPHIMURIUM, Strain/Indicator: TA98, Metabolic Activation: GUINEA PIG, LIVER, S-9, PCB, Method: PREINCUBATION) was “inactive; negative”, the mutagenic call (Test System: AMES SALMONELLA TYPHIMURIUM, Strain/Indicator: TA98, Metabolic Activation: HAMSTER, LIVER, S-9, AROCLOR 1254 (10 OR 30%), Method: PREINCUBATION) was “inactive; negative” and the mutagenic call (Test System: AMES SALMONELLA TYPHIMURIUM, Strain/Indicator: TA98, Metabolic Activation: HAMSTER, LIVER, S-9, PCB, Method: PREINCUBATION) was “inactive; negative”. The mutagenic call (Test System: AMES SALMONELLA TYPHIMURIUM, Strain/Indicator: TA98, Metabolic Activation: MOUSE, LIVER, S-9, PCB, Method: PREINCUBATION) was “inactive; negative”, the mutagenic call [1] was “inactive; negative” and the mutagenic call (Test System: AMES SALMONELLA TYPHIMURIUM, Strain/Indicator: TA98, Metabolic Activation: RAT, LIVER, S-9, AROCLOR 1254 (10 OR 30%), Method: PREINCUBATION) was “inactive; negative”. For the same compound, the mutagenic call (Test System: AMES SALMONELLA TYPHIMURIUM, Strain/Indicator: TA98, Metabolic Activation: RAT, LIVER, S-9, PCB, Method: PREINCUBATION) was “inactive; negative”, the mutagenic call (Test System: AMES SALMONELLA TYPHIMURIUM, Strain/Indicator: TA100, Metabolic Activation: GUINEA PIG, LIVER, S-9, PCB, Method: PREINCUBATION) was “inactive; negative” and the mutagenic call (Test System: AMES SALMONELLA TYPHIMURIUM, Strain/Indicator: TA100, Metabolic Activation: HAMSTER, LIVER, S-9, AROCLOR 1254 (10 OR 30%), Method: PREINCUBATION) was “inactive; negative”. The mutagenic call (Test System: AMES SALMONELLA TYPHIMURIUM, Strain/Indicator: TA100, Metabolic Activation: HAMSTER, LIVER, S-9, PCB, Method: PREINCUBATION) was “inactive; negative”, the mutagenic call (Test System: AMES SALMONELLA TYPHIMURIUM, Strain/Indicator: TA100, Metabolic Activation: MOUSE, LIVER, S-9, PCB, Method: PREINCUBATION) was “inactive; negative” and the mutagenic call [2] was “inactive; negative”. For the same compound, the mutagenic call (Test System: AMES SALMONELLA TYPHIMURIUM, Strain/Indicator: TA100, Metabolic Activation: RAT, LIVER, S-9, AROCLOR 1254 (10 OR 30%), Method: PREINCUBATION) was “inactive; negative”, the mutagenic call (Test System: AMES SALMONELLA TYPHIMURIUM, Strain/Indicator: TA100, Metabolic Activation: RAT, LIVER, S-9, PCB, Method: PREINCUBATION) was “inactive; negative” and the mutagenic call (Test System: AMES SALMONELLA TYPHIMURIUM, Strain/Indicator: TA1535, Metabolic Activation: HAMSTER, LIVER, S-9, AROCLOR 1254 (10 OR 30%), Method: PREINCUBATION) was “inactive; negative”. For the same compound, the mutagenic call (Test System: AMES SALMONELLA TYPHIMURIUM, Strain/Indicator: TA1535, Metabolic Activation: NONE, Method: PREINCUBATION) was “inactive; negative” and the mutagenic call (Test System: AMES SALMONELLA TYPHIMURIUM, Strain/Indicator: TA1535, Metabolic Activation: RAT, LIVER, S-9, AROCLOR 1254 (10 OR 30%), Method: PREINCUBATION) was “inactive; negative”.
